From ChEMBL document CHEMBL1201862, “PubChem BioAssay data set” (2004)
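Growth conditions: 96-well plates. Treatment: test compound, 48 hours, 5 concentrations. Analysis: linear interpolation between bracketing concentrations; unreached endpoints set to highest concentration. Abbreviation: GI50, concentration required for 50% inhibition of growth.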 Active and inactive are the calls of the source. No stated cut-off is given here; in the data, active = GI50 up to about 1.1 µM and inactive = higher.

How the values were obtained:
Experiment in all cases: NCI anticancer screen, dose series, 48 h
CAKI-1 = test system: CAKI-1
OVCAR-8 = test system: OVCAR-8
UACC-62 = test system: UACC-62
NCI-H522 = test system: NCI-H522
SF-268 = test system: SF-268
U-251 = test system: U-251
HOP-92 = test system: HOP-92
COLO 205 = test system: COLO 205
MOLT-4 = test system: MOLT-4
Hs-578T = test system: Hs-578T
HCC 2998 = test system: HCC 2998
MDA-MB-435 = test system: MDA-MB-435
LOX IMVI = test system: LOX IMVI
DU-145 = test system: DU-145
BT-549 = test system: BT-549
IGROV-1 = test system: IGROV-1
A549 = test system: A549
NCI-H23 = test system: NCI-H23
NCI-H460 = test system: NCI-H460
RPMI-8226 = test system: RPMI-8226

SMILES	GI50 (CAKI-1)	GI50 (OVCAR-8)	GI50 (UACC-62)	GI50 (NCI-H522)	GI50 (SF-268)	GI50 (U-251)	GI50 (HOP-92)	GI50 (COLO 205)	GI50 (MOLT-4)	GI50 (Hs-578T)	GI50 (HCC 2998)	GI50 (MDA-MB-435)	GI50 (LOX IMVI)	GI50 (DU-145)	GI50 (BT-549)	GI50 (IGROV-1)	GI50 (A549)	GI50 (NCI-H23)	GI50 (NCI-H460)	GI50 (RPMI-8226)
CC(=O)N1N=C(N)CC1=O	> 100 µM (inactive)	> 100 µM (inactive)	> 100 µM (inactive)	> 100 µM (inactive)	> 100 µM (inactive)	> 100 µM (inactive)	> 100 µM (inactive)	> 100 µM (inactive)	> 100 µM (inactive)	> 100 µM (inactive)	> 100 µM (inactive)	> 100 µM (inactive)	> 100 µM (inactive)	> 100 µM (inactive)	> 100 µM (inactive)	> 100 µM (inactive)	> 100 µM (inactive)	> 100 µM (inactive)	> 100 µM (inactive)	–
O=C(Nc1ccccc1C(=O)NCc1ccccc1)/C(=C/c1ccccc1)NC(=O)c1ccccc1	> 100 µM (inactive)	> 100 µM (inactive)	> 100 µM (inactive)	> 100 µM (inactive)	> 100 µM (inactive)	> 100 µM (inactive)	> 100 µM (inactive)	> 100 µM (inactive)	80.7 µM (inactive)	63.1 µM (inactive)	> 100 µM (inactive)	> 100 µM (inactive)	> 100 µM (inactive)	> 100 µM (inactive)	> 100 µM (inactive)	> 100 µM (inactive)	> 100 µM (inactive)	> 100 µM (inactive)	–	> 100 µM (inactive)
CN(C)NC(=S)Nc1ccccc1Br	> 100 µM (inactive)	> 100 µM (inactive)	> 100 µM (inactive)	> 100 µM (inactive)	–	> 100 µM (inactive)	> 100 µM (inactive)	> 100 µM (inactive)	> 100 µM (inactive)	> 100 µM (inactive)	–	> 100 µM (inactive)	> 100 µM (inactive)	> 100 µM (inactive)	> 100 µM (inactive)	> 100 µM (inactive)	> 100 µM (inactive)	> 100 µM (inactive)	> 100 µM (inactive)	> 100 µM (inactive)
CCNCCCNc1c2ccccc2nc2ccccc12	0.334 µM (active)	0.349 µM (active)	0.387 µM (active)	0.183 µM (active)	0.472 µM (active)	0.435 µM (active)	0.469 µM (active)	0.232 µM (active)	0.313 µM (active)	0.653 µM (active)	0.239 µM (active)	0.479 µM (active)	0.251 µM (active)	0.525 µM (active)	1.92 µM (inactive)	0.48 µM (active)	0.64 µM (active)	0.446 µM (active)	0.196 µM (active)	–
O=C(Oc1c(Br)cc(Br)cc1C(=O)Oc1ccccc1)C(=O)Oc1c(Br)cc(Br)cc1C(=O)Oc1ccccc1	19.7 µM (inactive)	30.8 µM (inactive)	24.8 µM (inactive)	14.4 µM (inactive)	29 µM (inactive)	13.1 µM (inactive)	12 µM (inactive)	21.6 µM (inactive)	14.9 µM (inactive)	34.8 µM (inactive)	31 µM (inactive)	10.1 µM (inactive)	–	37.5 µM (inactive)	18.5 µM (inactive)	26.7 µM (inactive)	14.5 µM (inactive)	0.621 µM (active)	> 100 µM (inactive)	15.5 µM (inactive)
CSC(SC)=C1C(=O)NN=C1C	89.3 µM (inactive)	–	> 100 µM (inactive)	47 µM (inactive)	> 100 µM (inactive)	> 100 µM (inactive)	35.1 µM (inactive)	> 100 µM (inactive)	> 100 µM (inactive)	> 100 µM (inactive)	> 100 µM (inactive)	> 100 µM (inactive)	> 100 µM (inactive)	> 100 µM (inactive)	> 100 µM (inactive)	> 100 µM (inactive)	> 100 µM (inactive)	> 100 µM (inactive)	> 100 µM (inactive)	> 100 µM (inactive)
FC(F)(Sc1ncc[nH]1)c1nc2ccccc2o1	> 100 µM (inactive)	> 100 µM (inactive)	> 100 µM (inactive)	> 100 µM (inactive)	> 100 µM (inactive)	> 100 µM (inactive)	> 100 µM (inactive)	> 100 µM (inactive)	> 100 µM (inactive)	62.7 µM (inactive)	> 100 µM (inactive)	> 100 µM (inactive)	–	> 100 µM (inactive)	> 100 µM (inactive)	> 100 µM (inactive)	> 100 µM (inactive)	> 100 µM (inactive)	> 100 µM (inactive)	> 100 µM (inactive)
BrCc1ccc(CBr)c2c1-c1c(CBr)ccc3ccc(CBr)c-2c13	–	> 100 µM (inactive)	> 100 µM (inactive)	> 100 µM (inactive)	> 100 µM (inactive)	49.8 µM (inactive)	> 100 µM (inactive)	–	33.8 µM (inactive)	53.2 µM (inactive)	> 100 µM (inactive)	> 100 µM (inactive)	> 100 µM (inactive)	> 100 µM (inactive)	> 100 µM (inactive)	> 100 µM (inactive)	> 100 µM (inactive)	–	> 100 µM (inactive)	95.7 µM (inactive)
CCOC1Oc2ccccc2-c2nc(N)ncc21 (stereo not given)	30.6 µM (inactive)	61.9 µM (inactive)	29.1 µM (inactive)	23.4 µM (inactive)	44.1 µM (inactive)	65.6 µM (inactive)	69 µM (inactive)	57.5 µM (inactive)	52.5 µM (inactive)	29.2 µM (inactive)	–	21.7 µM (inactive)	27 µM (inactive)	68.4 µM (inactive)	31.3 µM (inactive)	43.6 µM (inactive)	45.8 µM (inactive)	> 100 µM (inactive)	24.9 µM (inactive)	40 µM (inactive)
CC1C2CC(CC(=O)N2)C1(C)C (stereo not given)	> 100 µM (inactive)	> 100 µM (inactive)	> 100 µM (inactive)	> 100 µM (inactive)	> 100 µM (inactive)	> 100 µM (inactive)	> 100 µM (inactive)	> 100 µM (inactive)	–	> 100 µM (inactive)	> 100 µM (inactive)	> 100 µM (inactive)	–	> 100 µM (inactive)	> 100 µM (inactive)	> 100 µM (inactive)	> 100 µM (inactive)	> 100 µM (inactive)	> 100 µM (inactive)	–
O=C1NC(c2c(Cl)cccc2Cl)Nc2ccccc21 (stereo not given)	18.5 µM (inactive)	47.1 µM (inactive)	37 µM (inactive)	25.9 µM (inactive)	54.5 µM (inactive)	36.3 µM (inactive)	25.4 µM (inactive)	49.4 µM (inactive)	47.6 µM (inactive)	19.6 µM (inactive)	–	14.1 µM (inactive)	47.2 µM (inactive)	29.2 µM (inactive)	60 µM (inactive)	21.2 µM (inactive)	54.6 µM (inactive)	–	26.5 µM (inactive)	50.5 µM (inactive)
O=C1C=Cc2cscc21	27.4 µM (inactive)	32.6 µM (inactive)	> 100 µM (inactive)	19.6 µM (inactive)	92.5 µM (inactive)	37.9 µM (inactive)	> 100 µM (inactive)	47.4 µM (inactive)	14.3 µM (inactive)	> 100 µM (inactive)	–	48.5 µM (inactive)	35.8 µM (inactive)	34.3 µM (inactive)	53.7 µM (inactive)	32.4 µM (inactive)	62.7 µM (inactive)	21.2 µM (inactive)	> 100 µM (inactive)	20.4 µM (inactive)
Cc1ccc2c(c1)C(=O)/C(=C1/CCc3ccc(C)cc31)C2	–	48.6 µM (inactive)	> 100 µM (inactive)	32.4 µM (inactive)	> 100 µM (inactive)	> 100 µM (inactive)	> 100 µM (inactive)	57.9 µM (inactive)	> 100 µM (inactive)	> 100 µM (inactive)	> 100 µM (inactive)	> 100 µM (inactive)	> 100 µM (inactive)	> 100 µM (inactive)	> 100 µM (inactive)	> 100 µM (inactive)	> 100 µM (inactive)	> 100 µM (inactive)	> 100 µM (inactive)	> 100 µM (inactive)
c1ccc(C(=NNc2cnc3ccccc3n2)c2ccccn2)cc1	0.382 µM (active)	0.352 µM (active)	3 µM (inactive)	0.419 µM (active)	1.52 µM (inactive)	2.31 µM (inactive)	5.6 µM (inactive)	0.119 µM (active)	0.139 µM (active)	12 µM (inactive)	4.41 µM (inactive)	3.96 µM (inactive)	–	3.3 µM (inactive)	8.18 µM (inactive)	1.75 µM (inactive)	3.15 µM (inactive)	2.61 µM (inactive)	1.26 µM (inactive)	2.02 µM (inactive)
NCCNCCCCCCNC(=O)c1cccc2cc3ccccc3nc12	4.78 µM (inactive)	2.03 µM (inactive)	2.01 µM (inactive)	1.42 µM (inactive)	2.72 µM (inactive)	1.64 µM (inactive)	2.24 µM (inactive)	2.75 µM (inactive)	0.838 µM (active)	1.88 µM (inactive)	2.14 µM (inactive)	3.59 µM (inactive)	1.47 µM (inactive)	0.632 µM (active)	11.4 µM (inactive)	3.9 µM (inactive)	1.7 µM (inactive)	2.07 µM (inactive)	0.871 µM (active)	2.01 µM (inactive)
